Experimental data reported in patent publication US20250268876A1, “TREATMENT OF HIDRADENITIS SUPPURATIVA WITH ORISMILAST” (UNION THERAPEUTICS A/S, priority 2021, published 2025).
Values joined by “and” are separate entries in the source; they are usually repeats but may differ in a detail not shown here. Equal entries are not always repeated. Where two headings read alike, the source gives them in different places.

Tests used:
PDE4B2 = PDE4B2 (Homo sapiens, UniProt Q07343); experiment: IMAP fluorescence polarisation PDE4 subtype assay; assay type: biochemical
Chain of PDE4B2 (Q07343 1-564 isoform Q07343-2): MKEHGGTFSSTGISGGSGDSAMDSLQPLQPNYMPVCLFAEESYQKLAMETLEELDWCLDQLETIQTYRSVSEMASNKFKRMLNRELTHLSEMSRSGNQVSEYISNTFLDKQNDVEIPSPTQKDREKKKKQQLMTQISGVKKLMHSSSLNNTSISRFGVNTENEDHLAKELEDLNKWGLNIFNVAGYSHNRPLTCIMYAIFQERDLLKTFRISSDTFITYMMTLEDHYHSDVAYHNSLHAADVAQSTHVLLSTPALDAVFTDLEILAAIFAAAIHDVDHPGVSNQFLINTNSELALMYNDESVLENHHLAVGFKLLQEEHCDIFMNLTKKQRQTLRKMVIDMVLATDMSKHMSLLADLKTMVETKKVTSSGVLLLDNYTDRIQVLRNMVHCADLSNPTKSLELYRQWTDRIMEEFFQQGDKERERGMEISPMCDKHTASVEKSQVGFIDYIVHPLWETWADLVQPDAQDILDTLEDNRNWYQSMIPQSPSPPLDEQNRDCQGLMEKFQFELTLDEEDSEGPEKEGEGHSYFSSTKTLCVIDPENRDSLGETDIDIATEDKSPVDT
Experimental: Inhibition of PDE4 subtypes by the compound of formula (I) was tested using IMAP technology, which is based on the high affinity binding of phosphate by immobilized metal coordination complexes on nanoparticles. The binding reagent complexes with phosphate groups on nucleotide monophosphate generated from cyclic nucleotides (cAMP/cGMP) through phosphodiesterases. With fluorescence polarisation detection, binding causes a change in the rate of the molecular motion of the phosphate bearing molecule, and results in an increase in the fluorescence polarization value observed for the fluorescent label attached to the substrate.
Stocks of the compound of formula (I) were prepared in 100% DMSO. All assays were performed in 3% (final) DMSO for the IMAP assay. The compound was tested in duplicate against the PDE isoform panel at a range of concentrations (10^−10, 10^−9, 10^−8, 10^−7 M).

[1] = test system: TNF-α secretion from human whole blood; experiment: Whole blood TNF-α secretion assay (LPS or SEB); assay type: cell-based; conditions: for times more potent than Roflumilast / times more potent than apremilast: mean EC50 values; for Emax / EC50: Homo sapiens; for Emax: read-out: Emax
[2] = test system: Hidradenitis suppurativa (HS); experiment: Phase 2a open-label trial of orismilast in HS patients; assay type: in vivo, human; conditions: for IHS4: Baseline 65; for VAS pain: Baseline 9; for DLQI: Baseline 25; for HiSQOL: Baseline 54
Text: The following clinical trial may be performed using the compound of formula (I). Suitably the compound of formula (I) is orally administered to a subject in the form of a modified release composition, for example a modified release formulation described in WO 2020/148271, or as a composition described in Example 1 above. […] This is a phase 2, single-centre, prospective, open-label, single-arm, exploratory clinical trial assessing the efficacy and safety of orismilast in patients with mild, moderate, or severe HS as defined by the IHS4 scores: […] Eligible patients will receive treatment with orismilast tablets twice daily for 16 weeks. The treatment dose will be according to a predefined titration scheme and adapted to the observed tolerance of each patient. Treatment phase: […] Telephone consultation], and Week 2 [Visit 4]) (“BID” means bis in die, i.e. twice per day). Assessment of treatment efficacy will be undertaken using: • 1. Investigator assessments: • a. Counts of abscess, inflammatory nodule, and draining fistula at each on site visit day. • b. International Hidradenitis Suppurativa Severity Score System (IHS4) at each on site visit day. • c. Physician's Global Assessment of disease severity (HS-PGA) at each on site visit day. • 2. Patient assessments • a. Patients' Global Assessment of disease severity at Screening, Baseline, Week 2 (Visit 4), Week 8 (Visit 6), Week 12 (Visit 7), Week 16 (EoT, Visit 8), FU (Visit 9), and EoS (Visit 10). • b. Completion of questionnaires covering skin related quality of life DLQI at Screening, Baseline, Week 2 (Visit 4), Week 8 (Visit 6), Week 12 (Visit 7), Week 16 (EoT), FU, and EoS. • c. Completion of questionnaires covering HS specific quality of life (HiSQOL) at Screening, Baseline, Week 2 (Visit 4), Week 8 (Visit 6), Week 12 (Visit 7), Week 16 (EoT), FU, and EoS. • d. Completion of questionnaire covering skin pain (Patient's Global Assessment of Skin Pain) at each visit day. • e. Completion of questionnaire covering impact on work productivity (WPAI), anxiety and depression (HADS), fatigue (MFI-20), quality of life (EQ-5D), and McGill Pain questionnaire at Baseline, Week 16 (EoT), and EoS. • Counts of abscess, inflammatory nodule, and draining fistula. The lesions are defined in a Pan-European consensus paper ([…] et al., Dermatology. 2020; 236(5):431-438). […] An abscess is defined as a palpable lesion, with liquid content (pus), fluctuant, soft on palpation, diameter >10 mm, usually deep seated; acute, very painful phenomenon. […] A treatment target based on correlation between the changes in lesion counts and PROM (pain and HRQoL). Hidradenitis Suppurativa Clinical Response (HiSCR; a […] reduction from baseline in abscess and inflammatory nodule count and no increase in abscess or draining fistula counts) (Kimball et al., Ann Intern Med. 2012 Dec. 18; 157(12):846-55; Kimball et al., J Eur Acad Dermatol Venereol. 2016 June; 30(6):989-94). Subsequently modified for further differentiation: HiSCR75; a ≥75% reduction from baseline in abscess and inflammatory nodule count and no increase in abscess or draining fistula counts) and HiSCR-90; a ≥90% reduction from baseline in abscess and inflammatory nodule count and no increase in abscess or draining fistula counts) • International Hidradenitis Suppurativa Severity Score System (IHS4): […] The score is based on a count of inflamed lesions. The resulting IHS4 score is arrived at by the number of nodules (multiplied by 1) plus the number of abscesses (multiplied by 2) plus the number of draining tunnels (multiplied by 4). […] The six-point hidradenitis suppurativa Physician Global Assessment (PGA) ranges from clear to very severe (Kimball et al., Ann Intern Med. 2012 Dec. 18; 157(12):846-55). It is used in clinical trials to measure clinical improvement in inflammatory nodules, abscesses, and draining fistulae. The six stages are; • Clear: No inflammatory or non-inflammatory nodules. • Minimal: Only the presence of non-inflammatory nodules. • Mild: […]

O=C(Cc1c(Cl)c[n+]([O-])cc1Cl)c1ccc(OC(F)F)c2c1OC1(CCS(=O)(=O)CC1)O2 [Compound (I), 2-(3,5-Dichloro-1-oxido-pyridine-4-yl)-1-(7-difluoro-methoxy-2′,3′,5′,6′-tetrahydro-spiro[1,3-benzodioxole-2,4′-(4H)-thiopyran-1′,1′-dioxide]-4-yl)ethanone]
inhibition at 0.1 µM (PDE4B2; compound 10^−7 M): 61% | inhibition at 0.01 µM (PDE4B2; compound 10^−8 M): 41% | inhibition at 0.001 µM (PDE4B2; compound 10^−9 M): 18% | inhibition at 0.0001 µM (PDE4B2; compound 10^−10 M): 12% | times more potent than Roflumilast ([1]; (M)): 1.7 times | times more potent than Roflumilast ([1]; (ng/mL)): 1.4 times | Emax ([1]; 24 h, LPS 1 μg/mL, 24 hours, donor 1, Emax defined as TNF-α level in un-stimulated wells): 76% | EC50 ([1]; 24 h, LPS 1 μg/mL, 24 hours, donor 1, read-out: EC50): 5.34 nM | EC50 ([1]; 24 h, LPS 1 μg/mL, 24 hours, donor 2, read-out: EC50): 18.4 nM | Emax ([1]; 24 h, LPS 1 μg/mL, 24 hours, donor 2): 79% | EC50 ([1]; 24 h, SEB 1 μg/mL, 24 hours, donor 1, read-out: EC50): 4.93 nM | Emax ([1]; 24 h, SEB 1 μg/mL, 24 hours, donor 1): 97% | EC50 ([1]; 24 h, SEB 1 μg/mL, 24 hours, donor 2, read-out: EC50): 24.9 nM | Emax ([1]; 24 h, SEB 1 μg/mL, 24 hours, donor 2): 66% | EC50 ([1]; 48 h, LPS 1 μg/mL, 48 hours, donor 1, read-out: EC50): 12.1 nM | Emax ([1]; 48 h, LPS 1 μg/mL, 48 hours, donor 1): 71% | EC50 ([1]; 48 h, LPS 1 μg/mL, 48 hours, donor 2, read-out: EC50): 19.8 nM | Emax ([1]; 48 h, LPS 1 μg/mL, 48 hours, donor 2): 80% | EC50 ([1]; 48 h, SEB 1 μg/mL, 48 hours, donor 1, read-out: EC50): 4.66 nM | Emax ([1]; 48 h, SEB 1 μg/mL, 48 hours, donor 1): 98% | EC50 ([1]; 48 h, SEB 1 μg/mL, 48 hours, donor 2, read-out: EC50): 47.8 nM | Emax ([1]; 48 h, SEB 1 μg/mL, 48 hours, donor 2): 83% | EC50 ([1]; mean of 8 determinations (LPS and SEB, 24 and 48 hours, 2 donors), read-out: Geometric mean of EC50 values across different assay parameters): 12.6 nM and 0.00643 µg/mL | Potency compared with roflumilast-N-oxide (in words) ([1]; LPS and SEB-induced TNF-α secretion): equipotent to—or slightly more potent than | times more potent than apremilast ([1]; based on molar concentrations): 23 times | times more potent than apremilast ([1]; based on ng/mL concentrations): 21 times | clinical response (in words) ([2]; first four HS patients enrolled, trial ongoing): initial signs of improvement in HS | clinical response (in words) ([2]; one patient refractory to conventional HS therapies): immediate clinical improvement with reduction of tissue edema and pain, as well as increased mobility | IHS4 ([2]; one patient, severe HS, Day 14, 10 to 30 mg twice daily): 61 | VAS pain ([2]; one patient, Day 14): 7 | DLQI ([2]; one patient, Day 14): 23 | HiSQOL ([2]; one patient, Day 14): 42 | VAS pain ([2]; one patient, Day 57): 6 | DLQI ([2]; one patient, Day 57): 22 | HiSQOL ([2]; one patient, Day 57): 46 | IHS4 ([2]; one patient, Day 57, 30 mg twice daily): 62 | thrombocytes ([2]; one patient, at day 14, baseline 402): 365 | patient's global assessment ([2]; one patient, day 15): very severe | patient's global assessment ([2]; one patient, day 57): severe | leukocytes ([2]; one patient, day 57, baseline 14.0): 11.5 | C-reactive protein ([2]; one patient, day 57, baseline 89): 84 | erythrocyte sedimentation rate ([2]; one patient, day 57, baseline 94): 88 | physician's global assessment of disease activity ([2]; one patient, during treatment to day 57): very severe
